Here are results for 15 molecules from US20090131470A1, “PYRAZOLE-SUBSTITUTED BENZIMIDAZOLE DERIVATIVES FOR USE IN THE TREATMENT OF CANCER AND AUTOIMMUNE DISORDERS” (priority 2005, published 2009).

Each structure is given as a SMILES string.

Format in all cases: biochemical
One test deals with T1, PKA (Homo sapiens, UniProt P17612).
T1 construct: purchased Upstate
The test is described as follows: PKA kinase assay (Kemptide substrate). The conditions noted are these: 100 μM ATP. The protocol:
(§1) The assay mixture containing the inhibitor and CDK-2 enzyme, complexed with cyclin A (0.4 U/ml) was mixed together in a microtiter plate in a final volume of 50 μl and incubated for 40 min at 30° C. The assay mixture contained 0.1 mM unlabeled ATP, 0.01 μCi/μl ^33P-γ-ATP, 0.03 mM peptide, 0.1 mg/ml BSA, 7.5 mM magnesium acetate, 50 mM HEPES-NaOH, pH 7.5. The reaction was stopped by adding 50 μl of 50 mM phosphoric acid. 90 μl of the mixture were transferred to a pre-wetted 96-well Multiscreen MAPHNOB filtration plate (Millipore) and filtered on a vacuum manifold. The filter plate was washed with 3 successive additions of 200 μl 50 mM phosphoric acid and then with 100 μl methanol. The filtration plate was dried for 10 min at 65° C., scintillant added and phosphorylated peptide quantified in a scintillation counter (Trilux, PerkinElmer)
The PKA assay was incubated at 30° C. for 30 minutes.

Test [1] has as its target CDK-2 enzyme, complexed with cyclin A (Homo sapiens, UniProt P24941). The test is described as follows: CDK2 kinase assay (33P peptide phosphorylation). Conditions: 0.1 mM ATP, cyclin A complex. The protocol:
as §1

A further test deals with T2, GST-Chk1 enzyme (Homo sapiens, UniProt O14757).
T2 sequence (O14757 1-476): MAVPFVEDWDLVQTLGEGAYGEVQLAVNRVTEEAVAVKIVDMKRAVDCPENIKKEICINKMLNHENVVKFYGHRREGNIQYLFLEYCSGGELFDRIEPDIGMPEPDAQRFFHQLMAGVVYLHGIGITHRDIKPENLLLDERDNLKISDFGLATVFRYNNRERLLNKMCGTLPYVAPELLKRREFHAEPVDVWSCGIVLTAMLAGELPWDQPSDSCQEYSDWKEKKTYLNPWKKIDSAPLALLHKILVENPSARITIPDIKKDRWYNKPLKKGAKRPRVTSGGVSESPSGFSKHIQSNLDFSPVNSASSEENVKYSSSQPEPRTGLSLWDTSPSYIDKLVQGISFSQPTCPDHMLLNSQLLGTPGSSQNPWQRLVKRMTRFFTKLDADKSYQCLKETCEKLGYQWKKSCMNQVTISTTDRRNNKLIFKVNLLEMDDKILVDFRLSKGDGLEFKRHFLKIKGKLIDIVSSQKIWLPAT
Description: Chk1 kinase assay (33P Chktide phosphorylation). Conditions: 0.01 mM ATP, 40 minutes at 30° C.; read-out: CHK-1 IC50. As to the method:
as §1, with “and Chk1 enzyme” for “and CDK-2 enzyme, complexed with cyclin A (0.4 U/ml)”, “40 minutes” for “40 min”, “C. […]” for “C. The assay mixture contained 0.1 mM unlabeled ATP, 0.01 μCi/μl ^33P-γ-ATP, 0.03 mM peptide, 0.1 mg/ml BSA, 7.5 mM magnesium acetate, 50 mM HEPES-NaOH, pH 7.5.”, “mixture was” for “mixture were”, “96-well multi-screen” for “96-well Multiscreen”

In another test the target is T3, PDK1 (Homo sapiens, UniProt O15530).
T3 sequence (O15530 1-556): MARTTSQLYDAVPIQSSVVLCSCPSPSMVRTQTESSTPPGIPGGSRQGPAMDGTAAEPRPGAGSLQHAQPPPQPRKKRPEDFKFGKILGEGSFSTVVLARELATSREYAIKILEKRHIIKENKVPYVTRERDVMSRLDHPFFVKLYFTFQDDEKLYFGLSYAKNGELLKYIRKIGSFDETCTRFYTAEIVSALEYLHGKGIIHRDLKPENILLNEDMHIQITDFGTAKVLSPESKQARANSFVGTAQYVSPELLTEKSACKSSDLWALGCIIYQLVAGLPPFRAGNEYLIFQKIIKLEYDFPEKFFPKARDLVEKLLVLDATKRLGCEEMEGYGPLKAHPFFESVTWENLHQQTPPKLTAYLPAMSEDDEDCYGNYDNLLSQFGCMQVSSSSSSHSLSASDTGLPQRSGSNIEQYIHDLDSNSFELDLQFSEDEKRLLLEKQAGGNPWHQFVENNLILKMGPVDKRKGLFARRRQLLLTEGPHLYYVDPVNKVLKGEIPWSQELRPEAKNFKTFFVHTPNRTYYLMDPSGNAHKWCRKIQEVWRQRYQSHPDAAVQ
Description: PDK1 kinase assay (33P peptide phosphorylation). The conditions noted are these: 0.01 mM ATP, 60 min at 30° C.; read-out: PDK-1 IC50. As to the method: as §1, with “and PDK1 enzyme” for “and CDK-2 enzyme, complexed with cyclin A (0.4 U/ml)”, “for 60” for “for 40”, “contained 0.01” for “contained 0.1”, “^33P-γ-ATP, 0.075” for “^33P-γ-ATP, 0.03”, “acetate, 0.05M Tris.HCl,” for “acetate, 50 mM HEPES-NaOH,”, “pH 7.5, 0.5% 2-mercaptoethanol.” for “pH 7.5.”

A further test deals with T4, Akt1 (Homo sapiens, UniProt P31749).
T4 construct: purchased Upstate
T4 sequence (P31749 whole entry, species assumed): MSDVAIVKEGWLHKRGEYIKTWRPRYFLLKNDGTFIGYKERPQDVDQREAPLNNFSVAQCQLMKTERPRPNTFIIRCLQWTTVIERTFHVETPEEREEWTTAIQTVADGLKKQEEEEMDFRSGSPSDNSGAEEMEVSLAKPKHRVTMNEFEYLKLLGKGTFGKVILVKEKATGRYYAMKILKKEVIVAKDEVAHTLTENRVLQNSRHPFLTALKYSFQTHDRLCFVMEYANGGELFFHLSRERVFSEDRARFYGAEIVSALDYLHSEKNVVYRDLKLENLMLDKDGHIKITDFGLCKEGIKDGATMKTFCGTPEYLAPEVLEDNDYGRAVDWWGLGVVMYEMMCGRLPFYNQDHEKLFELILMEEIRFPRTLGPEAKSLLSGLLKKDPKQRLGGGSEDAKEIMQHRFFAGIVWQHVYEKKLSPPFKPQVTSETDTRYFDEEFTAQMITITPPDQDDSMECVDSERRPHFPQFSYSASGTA
Description: Akt1 kinase assay (Histone H1 substrate). Conditions: 200 μM ATP, read-out: AKT-1 IC50. As to the method: Assays for the cyclin dependent kinase activity were carried out by monitoring the phosphorylation of a synthetic peptide, HATTPKKKRK. The assay mixture containing the inhibitor and CDK-2 enzyme, complexed with cyclin A (0.4 U/ml) was mixed together in a microtiter plate in a final volume of 50 μl and incubated for 40 min at 30° C. The assay mixture contained 0.1 mM unlabeled ATP, 0.01 μCi/μl ^33P-γ-ATP, 0.03 mM peptide, 0.1 mg/ml BSA, 7.5 mM magnesium acetate, 50 mM HEPES-NaOH, pH 7.5. The reaction was stopped by adding 50 μl of 50 mM phosphoric acid. 90 μl of the mixture were transferred to a pre-wetted 96-well Multiscreen MAPHNOB filtration plate (Millipore) and filtered on a vacuum manifold. The filter plate was washed with 3 successive additions of 200 μl 50 mM phosphoric acid and then with 100 μl methanol. The filtration plate was dried for 10 min at 65° C., scintillant added and phosphorylated peptide quantified in a scintillation counter (Trilux, PerkinElmer)
Protocol for the Akt assay is the same for CDK2 except that, 3 nM Akt1 (Upstate) was used with Histone H1 as substrate with a final ATP concentration of 200 μM. The reaction was incubated at 30° C. for 40 minutes.

As for `Cc1[nH]nc(-c2nc3ccccc3[nH]2)c1C(=O)NC1CCCNC1` (centres unmarked) [Example 19], the IC50 (in general, the midpoint of a concentration-inhibition curve) against PKA was 10.9 µM; in test [1], 4.47 µM; at GST-Chk1 enzyme, 0.058 µM; at PDK1 it was 0.05 µM; on Akt1, more than 50 µM.

Consider `O=C(NC1CCNCC1)c1c[nH]nc1-c1nc2ccccc2[nH]1` [Example 20], for which the half-inhibitory concentration (IC50) on PKA was 32.1 µM; in test [1] it was 6.36 µM; on GST-Chk1 enzyme it was 0.252 µM; at PDK1 it was 0.323 µM; on Akt1, more than 50 µM.

Consider `Cc1[nH]nc(-c2nc3cc(C#N)ccc3[nH]2)c1C(=O)NC1CCNCC1` [Example 18], for which the IC50 at PKA was 22.6 µM; in test [1] it was 12.2 µM; on GST-Chk1 enzyme, 0.137 µM; at PDK1 it was 0.311 µM; at Akt1, more than 50 µM.

As to `Cc1[nH]nc(-c2nc3cc(-c4cccc5c4CCO5)ccc3[nH]2)c1C(=O)NC1CCNCC1` [Example 23], the half-inhibitory concentration (IC50) against PKA amounted to 5.36 µM; in test [1] it was 21.1 µM; at GST-Chk1 enzyme it was 0.015 µM; on PDK1, 0.125 µM; on Akt1, 25.6 µM.

For `Cc1[nH]nc(-c2nc3ccc(C(=O)NCC(O)c4ccccc4)cc3[nH]2)c1C(=O)NC1CCNCC1` (centres unmarked) [Example 35], the IC50 against PKA stood at 5.31 µM; in test [1], 13.8 µM; at GST-Chk1 enzyme it was 0.037 µM; on PDK1, 0.057 µM; at Akt1, 10.6 µM.

With `COCCNC(=O)c1ccc2nc(-c3n[nH]c(C)c3C(=O)NC3CCNCC3)[nH]c2c1` [Example 31], the IC50 at PKA was 8.04 µM; in test [1], 11.4 µM; on GST-Chk1 enzyme it was 0.002 µM; at PDK1, 0.073 µM; on Akt1, 31.4 µM.

In the case of `Cc1[nH]nc(-c2nc3ccccc3[nH]2)c1C(=O)NCC1CCNCC1` [Example 9], the IC50 against PKA is 7.51 µM; in test [1] it was 47 µM; on GST-Chk1 enzyme it was 0.208 µM; at PDK1, 0.129 µM; at Akt1, 11.1 µM.

On to `Cc1[nH]nc(-c2nc3ccc(C(F)(F)F)cc3[nH]2)c1C(=O)NCC1CCCNC1` (centres unmarked) [Example 39], for which the IC50 was more than 50 µM at PKA; more than 50 µM in test [1]; 0.049 µM at GST-Chk1 enzyme; 0.086 µM on PDK1; more than 10 µM on Akt1.

Take `Cc1[nH]nc(-c2nc3cc(Cl)c(C(C)C)cc3[nH]2)c1C(=O)NC1CCNCC1` [Example 45]: the IC50 against PKA was 5.13 µM; in test [1], 11.9 µM; at GST-Chk1 enzyme, 0.013 µM; on PDK1 it was 0.013 µM; at Akt1 it was more than 10 µM.

For `Cc1[nH]nc(-c2nc3ccc(C(C)C)cc3[nH]2)c1C(=O)NC1CN2CCC1CC2` (centres unmarked) [Example 42], the 50% inhibitory concentration (IC50) at PKA was 3.82 µM; in test [1] it was 9.67 µM; at GST-Chk1 enzyme it was 0.05 µM; at PDK1, 0.045 µM; on Akt1, more than 10 µM.

Take `Cc1[nH]nc(-c2nc3ccccc3[nH]2)c1C(=O)NC1CCN(C)CC1` [Example 30]: the IC50 was 20.2 µM on PKA; 2.21 µM in test [1]; 0.0635 µM at GST-Chk1 enzyme; 0.139 µM on PDK1; 11.8 µM at Akt1.

Turning to `CCOC(=O)c1ccc2nc(-c3n[nH]c(C)c3C(=O)NC3CCNCC3)[nH]c2c1` [Example 6, 2-[5-Methyl-4-(piperidin-4-ylcarbamoyl)-1H-pyrazol-3-yl]-3H-benzimidazole-5-carboxylic Acid Ethyl Ester], the IC50 at PKA is 40.2 µM; in test [1], 39.5 µM; at GST-Chk1 enzyme, 0.023 µM; at PDK1 it was 0.433 µM; at Akt1, more than 50 µM.

On to `Cc1[nH]nc(-c2nc3ccc(C(C)C)cc3[nH]2)c1C(=O)NC1CC2CCC(C1)N2C` (centres unmarked) [Example 49], for which the IC50 on GST-Chk1 enzyme and on PDK1 was less than 0.5 µM each time.

`Cc1[nH]nc(-c2nc3ccc(C(=O)NC4CCc5ccccc54)cc3[nH]2)c1C(=O)NC1CCNCC1` (centres unmarked) [Example 48]: the half-inhibitory concentration (IC50) at PDK1 was less than 0.05 µM.

In the case of `Cc1[nH]nc(-c2nc3ccccc3[nH]2)c1C(=O)NCCN` [Example 50], the IC50 at GST-Chk1 enzyme and at PDK1 was less than 0.5 µM in each case.
